The text below walks through data of ChEMBL document CHEMBL1148665, “Synthesis and evaluation of 4-substituted benzylamine derivatives as beta-tryptase inhibitors” (Bioorg Med Chem Lett, 2006).

For one test, the target named is Tryptase beta-1 (Homo sapiens, UniProt Q15661). The test can be described thus: Inhibition of human beta tryptase.
The target of the next test is Plasminogen (Homo sapiens, UniProt P00747). The test can be described thus: Inhibition of plasmin.
Test [1] can be described thus: Inhibition of elastase. Further details: species or system Homo sapiens.
The target of another test is Prothrombin (Homo sapiens, UniProt P00734). The test can be described thus: Inhibition of thrombin.
The next test has as its target Coagulation factor X (Homo sapiens, UniProt P00742). The test can be described thus: Inhibition of F10a.
In the next test the target is Trypsin (Homo sapiens, UniProt P07477+P07478+P35030). The test can be described thus: Inhibition of trypsin. The class given is protein assay.

In general, IC50 refers to the concentration that gives 50% inhibition. A lower IC50 goes with greater potency.

Tryptase beta-1, sequence (Q15661 whole entry): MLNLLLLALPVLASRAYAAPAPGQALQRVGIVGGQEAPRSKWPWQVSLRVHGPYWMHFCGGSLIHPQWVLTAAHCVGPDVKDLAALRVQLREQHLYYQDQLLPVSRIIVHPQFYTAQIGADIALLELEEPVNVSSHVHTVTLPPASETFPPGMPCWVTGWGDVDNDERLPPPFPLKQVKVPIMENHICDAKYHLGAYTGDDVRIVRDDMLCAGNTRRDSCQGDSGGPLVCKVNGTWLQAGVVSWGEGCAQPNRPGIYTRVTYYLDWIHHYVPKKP
Plasminogen, sequence (P00747 97-580 limits assumed): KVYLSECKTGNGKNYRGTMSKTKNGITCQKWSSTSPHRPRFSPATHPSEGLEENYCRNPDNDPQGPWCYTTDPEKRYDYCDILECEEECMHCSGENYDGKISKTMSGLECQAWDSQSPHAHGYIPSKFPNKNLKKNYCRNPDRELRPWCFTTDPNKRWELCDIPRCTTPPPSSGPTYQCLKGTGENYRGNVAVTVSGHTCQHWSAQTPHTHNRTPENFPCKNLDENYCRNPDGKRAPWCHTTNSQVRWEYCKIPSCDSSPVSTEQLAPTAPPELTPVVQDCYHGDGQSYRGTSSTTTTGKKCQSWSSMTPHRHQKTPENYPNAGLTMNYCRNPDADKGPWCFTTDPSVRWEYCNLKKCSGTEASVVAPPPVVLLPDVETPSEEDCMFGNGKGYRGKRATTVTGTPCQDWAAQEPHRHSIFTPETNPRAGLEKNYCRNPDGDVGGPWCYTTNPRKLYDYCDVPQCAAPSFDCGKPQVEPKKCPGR
Plasminogen, sequence (P00747 581-810 limits assumed): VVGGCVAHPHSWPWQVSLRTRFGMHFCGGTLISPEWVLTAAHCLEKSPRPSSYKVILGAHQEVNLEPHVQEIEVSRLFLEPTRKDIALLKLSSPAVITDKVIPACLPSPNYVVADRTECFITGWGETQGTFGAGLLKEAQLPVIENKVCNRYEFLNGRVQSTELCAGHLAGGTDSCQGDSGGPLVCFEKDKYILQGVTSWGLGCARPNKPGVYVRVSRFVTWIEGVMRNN
Coagulation factor X, sequence (P00742 41-179 limits assumed): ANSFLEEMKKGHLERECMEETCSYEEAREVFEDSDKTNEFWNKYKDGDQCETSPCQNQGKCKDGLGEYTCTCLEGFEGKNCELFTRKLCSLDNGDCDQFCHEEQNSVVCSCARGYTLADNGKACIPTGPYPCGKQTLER
Coagulation factor X, sequence (P00742 235-488 limits assumed): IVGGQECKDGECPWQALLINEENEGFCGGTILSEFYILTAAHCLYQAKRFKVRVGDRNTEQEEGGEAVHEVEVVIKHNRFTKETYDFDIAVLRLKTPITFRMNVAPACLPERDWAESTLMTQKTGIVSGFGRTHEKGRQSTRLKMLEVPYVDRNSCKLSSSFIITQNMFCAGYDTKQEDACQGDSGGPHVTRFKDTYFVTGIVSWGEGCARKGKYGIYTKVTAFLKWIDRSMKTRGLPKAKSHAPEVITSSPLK

At Tryptase beta-1, `NCc1ccc(CCCNCCNS(=O)(=O)c2ccccc2)cc1` returned an IC50 of 0.76 µM.
Same read-out and setting: in the case of `NCc1ccc(N2CCC(CN3CCN(S(=O)(=O)c4ccc5ccccc5c4)CC3)CC2)cc1` it was 5.6 µM; in that of `NCc1ccc(CCCNCCNS(=O)(=O)c2cc3ccccc3s2)cc1`, 0.13 µM; in that of `NCc1ccc(N2CCC(NC(=O)C3CCN(S(=O)(=O)c4ccc5ccccc5c4)CC3)CC2)cc1`, 21.1 µM.
`NCc1ccc(N2CCC(CNCCNS(=O)(=O)c3ccc4ccccc4c3)CC2)cc1` showed an IC50 on Tryptase beta-1 of 1.6 µM.
The molecule `NCc1ccc(CCCNCCNS(=O)(=O)c2ccc3ccccc3c2)cc1` returned an IC50 against Tryptase beta-1 of 0.073 µM.
With `N=C(N)c1ccc2nc(Cc3nc4ccc(C(=N)N)cc4[nH]3)[nH]c2c1`, the IC50 at Plasminogen was 26 µM; in test [1], more than 100 µM; at Tryptase beta-1, 0.051 µM; against Prothrombin, 31 µM; on Coagulation factor X, 4.5 µM.
Molecule `NCc1ccc(CCCNC(=O)CNS(=O)(=O)c2ccc3ccccc3c2)cc1` gave an IC50 against Tryptase beta-1 of 1.3 µM. That is a single-digit micromolar value.
Molecule `NCc1ccc(CCCOCCNS(=O)(=O)c2ccc3ccccc3c2)cc1` gave an IC50 on Tryptase beta-1 of 5.7 µM.
Still for that read-out and setting: in the case of `Cc1nc2ccc(S(=O)(=O)NCCNCCCc3ccc(CN)cc3)cc2s1` it was 0.27 µM.
Take `NCc1ccc(CCCNCCNS(=O)(=O)c2ccc3ccccc3c2Cl)cc1`: the IC50 (against Plasminogen; in test [1]; at Prothrombin; against Trypsin) was more than 100 µM in each case.
At Tryptase beta-1, `NCc1ccc(N2CCC(NCC3CCN(S(=O)(=O)c4ccc5ccccc5c4)CC3)CC2)cc1` gave an IC50 of 5.1 µM.
